Values of other authors as cited in US9006451B1, “2-anilinonicotinyl based chalcones useful as potential anticancer agents and process for preparation thereof” (Council of Scientific and Industrial Research, priority 2013, dated 2015).

System: breast cancer cell line MCF7
Conditions: cited from earlier work

## COc1ccc(C(=O)/C=C/c2c(OC)cccc2OC)c(OC)c1 [B, (E)-1-(2,4-dimethoxyphenyl)-3-(2,6-dimethoxyphenyl)prop-2-en-1-one]
J. Med. Chem. 2008, 51, 2307-2310, read-out: IC50 against breast cancer cell line MCF7
  IC50: 75 µM
Known chalcone, literature value
  GI50: 75 µM
